The record followed here is patent US12544372B2, “Methods of treating rheumatoid arthritis, chronic spontaneous urticaria, and systemic lupus erythematosis using an inhibitor of Bruton's tyrosine kinase” (Genentech, Inc., priority 2019, dated 2026).

What all share (type): in vivo, human
The subject of assay [1] is CD3+ T cells. Kind of assay: RA study: CD3+ T cells (flow cytometry). To be noted: cohort 1 and cohort 2, week 1. Here is the method: Biomarkers were evaluated in serum or plasma samples at baseline and weeks 1, 4, and 12 in patients with available samples (cohort 1: n=438; cohort 2: n=86). The biomarkers evaluated in this assessment were chemokine [C-C motif] ligand 4 (CCL4), IL-6, and TNF-like cytokine 1A (TL1A). Total IgM, IgG, rheumatoid factor IgM autoantibody (RF), CCL4, TL1A, IL-6, and anti-CCP autoantibody (ACPA IgG) levels were analyzed with immunoassays. CD19^+ B cells and CD3^+ T cells were measured by flow cytometry. The proportion of patients achieving an ACR50 response at week 12 and the change in DAS28 score by week 12 were assessed relative to seropositivity (RF and/or ACPA positive at baseline) or baseline levels of RF in both cohorts. To select which biomarkers to evaluate in this trial, BTK-dependent myeloid biomarkers were identified using peripheral blood CD14^+ monocytes stimulated with immune-complexes in the presence or absence of a BTK inhibitor. In brief, the expression levels of genes in human monocytes were assayed under conditions of no stimulation; with human serum albumin immune complex stimulation; with stimulation and a low concentration of a BTK inhibitor with similar characteristics to fenebrutinib; or with stimulation and a high concentration of the BTK inhibitor. […] Genes annotated with cytokine activity were selected. The color bar represents normalized gene expression.
In general terms: A flow cytometer gives signals particle by particle.

For assay [2], the system named is CXCL13. Kind of assay: RA study biomarker: CXCL13.
Assay [3] relates to CD19+ B cells. Kind of assay: SLE study biomarker: CD19+ B cells. Here is the method:
The following biomarkers were explored according to the biomarker objectives provided above in the Study Objectives. In Table 13, biomarkers are measured at baseline and subsequent timepoints during and after treatment. One set of biomarkers evaluated is the plasmablast signature. Plasmablasts are rapidly dividing, short-lived antibody secreting cells. While they represent a small proportion of B cells in the blood, they are responsible for a majority of antibody transcripts found in whole blood mRNA. The plasmablast signature comprises the biomarkers IgJ, Mzbl, and Txndc5. The gene expression of IgJ, Mzbl, and Txndc5 may be measured, for example, a polypeptide expression by evaluating the level of mRNA for said gene in a patient's blood relative to a reference level.

Assay [4] has as its system ESR. Nature of the assay: RA study: ESR versus baseline. The source says: As used herein, “ESR” refers to “Erythrocyte Sedimentation Rate”, which is a test that indirectly measures the degree of inflammation in the body by measuring how quickly red blood cells settle at the bottom of a test tube containing a sample of a patient's blood. See www.healthline.com/health/esr (last visited Aug. 7, 2018). A positive ESR may be determined using the Westergren method according to specifications by the International Council for Standardization in Haematology, or by automated methods (e.g., TEST1 from Alifax). See https://icsh(dot)org/guidelines; Lou, J. M. et al., Int. Jnl. Lab. Hem. 2011, 33:125-132.
Disease Activity Score 28. The DAS 28-4 (CRP) and the DAS 28-4 (ESR) are calculated as follows. Assessments: (i) Tender joint count of 28 joints (TJC28), square-root transformed; (ii) Swollen joint count of 28 joints (SJC28), square-root transformed; (iii) Acute-phase reactant (erythrocyte sedimentation rate [ESR mm/hr] or high sensitivity C-reactive protein [hsCRP mg/L]), log transformed; (iv) Patient's global assessment of disease activity on visual analog scale (0-100 mm).

Marks after values point to notes of the source that are not given here.

Consider `C[C@H]1CN(C2COC2)CCN1c1ccc(Nc2cc(-c3ccnc(N4CCn5c(cc6c5CC(C)(C)C6)C4=O)c3CO)cn(C)c2=O)nc1` [fenebrutinib, (S)-2-(3′-(hydroxymethyl)-1-methyl-5-((5-(2-methyl-4-(oxetan-3-yl)piperazin-1-yl)pyridin-2-yl)amino)-6-oxo-1,6-dihydro-[3,4′-bipyridin]-2′-yl)-7,7-dimethyl-2,3,4,6,7,8-hexahydro-1H-cyclopenta[4,5]pyrrolo[1,2-a]pyrazin-1-one], for which the “CD3+ T cells relative to placebo” value in assay [1] is listed as “+10-15%”. The “CXCL13 Reduction as % of Baseline” value turned out to be 63%* in assay [2] (Cohort 1, 50 mg QD, Week 4); 62%* in assay [2] (Cohort 1, 50 mg QD, Week 12); 65%* in assay [2] (Cohort 1, 150 mg QD, Week 4); 58%* in assay [2] (Cohort 1, 150 mg QD, Week 12); 67%* in assay [2] (Cohort 1, 200 mg BID, Week 4); 62%* in assay [2] (Cohort 1, 200 mg BID, Week 12). Further, the entries for the “CD19+ B cells, Median Change from Baseline at Week 48” value in assay [3] (150 mg QD) and in assay [3] (200 mg BID) were −57.0* cells/μl and −57.5* cells/μl, respectively. In addition, in assay [4] (Cohort 1, 200 mg BID, Week 12), the “ESR, % of BL ESR” value is listed as 63%. Moreover, the ESR levels entry is on record as “reduced ESR levels” in assay [4] (Cohort 1, Weeks 2, 4 and 8); “reduced ESR levels” in assay [4] (Cohort 2, Week 8 and Week 12).
